The values below come from patent publication US11351185B2, “Use of isovalerylspiramycins as anti-cancer agents to inhibit metastasis” (priority 2020, dated 2022).

Each structure is given as a SMILES string. Entries after “also recorded” stand apart in the source; their conditions may differ.

One data set relates to IOMM tumors. Put plainly: IOMM meningioma subcutaneous xenograft mouse model. The data set is classed as in vivo, Nude mice. The conditions noted are these: 35 mg/kg i.p. daily; 18 days after treatment. As to the method: For subcutaneous xenografts, NSG mice (6-8 weeks old) from the NCI-Frederick animal facility and Jackson Lab (Bar Harbor, Me. USA) were injected with 5×10^6 to 1×10^7 cells subcutaneously in the flank. One week later, the tumor-bearing mice were randomly assigned to different groups and made the tumor volume baseline equivalent and treated with normal saline or Zenomycin (35 mg/kg) everyday intraperitoneally. Tumors were measured using a caliper, and volume was calculated.

Data set [1] relates to SELH-deficient LN229 cells. Description: CCK8 assay in SELH-deficient (CRISPR/CAS9) LN229 cells. The data set is classed as cell-based. The conditions noted are these: LN229 SELH knock out. An excerpt:
SELH knockout LN229 cell lines and B16 were generated using the CRISPR/Cas9 technique described by Shalem et al., Science 343: 84 (2014). The gDNA for targeting SELH was designed as follows: Oligo 1, 5′-[…]-3′; Oligo 2, 5′-[…]-3′; the gDNA for targeting mouse SELH was designed as follows: Oligo 1, 5′-[…]-3′; Oligo 2, 5′-[…]-3′, and subcloned into Cas9 carrying vector (pX330). The two resultant plasmids and puromycin-expressing vector (pPGK-puro) were co-transfected at a ratio of 1:1:1 into LN229 or B16 cells using Lipofectamine 2000 (Invitrogen). Twenty-four hours later, the transfected cells were subjected to puromycin (Sigma) at 1 μg/mL for 7 days. One week after selection, the surviving clones were expanded, followed by extraction of total protein for standard western blotting analysis.
Cell viability was measured by Cell Counting Kit-8 (CCK-8, Dojindo Molecular Technologies, Tokyo, Japan). Cells were seeded in 96-well plates at a density of 3×10^3 cells/well and cultured for 24 hours before treatment with ISP I at different concentration. […] The absorbance in each well at a wavelength of OD450 was detected by the Synergy H1 microplate reader, a product of BioTek (Winooski, Vt. USA).
Background: Tetrazolium dyes change colour on reduction, which living cells bring about.

Another data set has as its system U2OS cell line. Put plainly: R-loop and EdU staining in U2OS cells. The data set is classed as cell-based, Human. The following applies: 6 hours. An excerpt: In order to assess ISP I's effect within the nuclear compartment, the inventors evaluated DNA-RNA R-loop formation within ISP I-treated Human Bone Osteosarcoma Epithelial Cells (U2OS cell line). R-loops are DNA-RNA hybrid structures composed of a displaced single-stranded DNA hybridized with the nascent RNA transcript. Santo-Pereira et al., Nat. Rev. Genet. 16: 583 (2015). […] Teng et al., Nature communications 9: 4115 (2018).
U2OS cells obtained from ATCC were transfected with plasmid containing RNaseH1 construct mutated at D210N (Addgene #111904) and WKKD (Addgene #111905). Stable monoclonal cells were selected with hygromycin.
EdU and R-loop staining for U2OS cells was conducted as follows: U2OS cells were incubated with EdU for 20 min and washed with a brief PBS wash. These cells were then pre-extracted in PBS-T buffer (0.2% Triton X-100 in 1×PBS, phenylmethylsulphonylfluoride [PMSF], protease inhibitor cocktail (Sigma, P8340) and phosphatase inhibitor cocktail (Roche, P4906845001)) for 3 min on ice and washed with a brief PBS wash. Pre-extracted cells were fixed using 2.0% paraformaldehyde (PFA) solution in PBS. EdU staining was performed according to the manufacturer's instructions. Primary antibody staining was performed as follows: anti-V5-tag (Santacruz, sc-271926, 1:250 dilution). Secondary antibody staining was performed as follows: Alexa 568 conjugated anti-mouse IgG (1:500, ThermoFisher Scientific). A Zeiss LSM710 confocal microscopy was used for imaging. Images where scored in ZenBlue software by counting non-nucleolar R-loops foci, where nucleoli were masked based on intensity and size of R-loop staining and number of foci counted in the rest of the nucleus.

Data set [2] in a line: Preclinical observation on doubled i.p. dose. Type of data set: in vivo. The conditions noted are these: mice; one week of continuing administration. As to the method:
Furthermore, the medicament is administered in “a therapeutically effective amount,” i.e., in a single dose or in multiple, divided subdoses at a suitable interval, e.g., two, three or more subdoses over a day or another appropriate schedule, to a prescribed total amount of active, such that metastasis is inhibited in the subject. Like the dose schedule, the effective amount of medicament will depend on a variety of factors, including the age and condition of the subject, the nature and extent of the cancerous condition, any contraindications, and the pharmacokinetic and pharmacodynamic characteristics of the medicament. For example, based on an accepted guide to animal-to-human dose conversion, see Nair R. Jacob, J. Basic. Clin. Pharm.

A further data set relates to TIF1A-POL1 interaction. Description: Co-immunoprecipitation of TIF1A and POL1. The data set is classed as cell-based. The following applies: LN229 cells; 10 μg/mL. As to the method:
SELH is localized in the nucleolus, which is a sensor of oxidative stress. Yang et al., Nature communications 7: 13599 (2016); Novoselov et al., J. Biol. Chem. 282: 11960 (2007). […] JNK2 activation by oxidative stress inactivated RNA polymerase I (POL1) transcription factor TIF1A in the nucleoli to down-regulate rRNA synthesis. Mayer et al., Genes Dev. 19: 933 (2005). To investigate whether the ribosomal biogenesis was disrupted by ISP I, pre-rRNA transcription was evaluated using real-time RT-PCR analysis in LN229 cells. […] To examine the mechanisms by which ISP I disrupts POL1 transcription, the inventors initially evaluated JNK2 activity and the overall state of the transcription machinery in ISP I-treated LN229 cells.
For co-immunoprecipitation analysis, LN229 wild-type cells, LN229 cells treated with 10 μg/mL of ISP I, and LN229 cells transfected with SELH siRNA for 24 hours were harvested, and total protein was prepared from cells using Dynabeads Co-Immunoprecipitation Kit (ThermoFisher) according to the manufacturer's protocol. Immunoblotting then was performed using anti-SELH antibody.

For the molecule `COC1C(O)CC(=O)OC(C)CC=CC=CC(OC2CCC(N(C)C)C(C)O2)C(C)CC(CC=O)C1OC1OC(C)C(OC2CC(C)(O)C(OC(=O)CC(C)C)C(C)O2)C(N(C)C)C1O` (centres unmarked) [ISP I, 4″-isolvalerylspiramycin I], the “tumor size, weight and burden” value with IOMM tumors was “reduced IOMM tumor burden; also recorded: significantly reduced tumor size and weight”. Further, the “sensitivity of SELH-deficient cells vs wild type (CCK8)” value in data set [1] is recorded as “resistance to ISP I; also recorded: SELH-deficient cells were resistant to ISP I treatment”. Moreover, in the data set with U2OS cell line, the “EdU incorporation (DNA replication)” value is reported as “reduced EdU (DNA replication marker) incorporation into DNA in a dose-dependent manner” and the R-loop formation result was “increased R-loop accumulation”. In the data set with U2OS cell line (listed as ISP 1), the “EdU incorporation (DNA replication)” value is listed as “reduction in EdU incorporation” and the R-loop formation entry is “increase of R-Loops formation”. The “adverse effect on doubling of the i.p. dose” value in data set [2] was “severe diarrhea”. The “TIF1A-POL1 interaction (co-immunoprecipitation)” value in the data set on TIF1A-POL1 interaction is listed as “interaction was disrupted by ISP I treatment”.
